We go through 28 compounds from patent publication US20160378909A1, “PROCESS FOR IDENTIFYING CULTURE CONDITIONS FOR A CELL OR ORGANISM” (GLAXOSMITHKLINE BIOLOGICALS SA, priority 2013, published 2016).

For the test, the system named is Bordetella pertussis. As to the kind of experiment: microbe, parasite or virus in culture. The class given is cell-based. The settings on record: for Effect on growth rate in comparison to a minimally identified medium: no concentration stated. On the procedure: Cells were harvested by centrifugation, washed twice with NaCl 0.9% (w/v), and resuspended in fresh medium (de novo minimal CDM; see composition in Table 1) at a theoretical OD650 nm of 0.5, as calculated from the OD650 nm of the culture before harvest. 20 μl of this cell suspension were used to inoculate each well of a 96-well microtiter plate filled with 180 μl of de novo minimal CDM. Only the inner wells of the plate were used for cultures, in order to minimize evaporation, and two controls were included, in which the supplement solution was replaced with water.
The plate was then incubated for 7 days at 35° C. in a Biotek Synergy H1 reader with constant shaking, and growth was automatically monitored every 10 minutes as OD650 nm.
The relative growth yield and growth rate for each supplement was then averaged over the three independent repeats, and the standard deviation was calculated.

Where [1] appears, read: 2 mM in medium, first generation, relative to water controls.
Setting [2] is: 2 mM in medium, max OD650 nm relative to water controls.
Where [3] appears, read: 20 mM in medium, first generation, relative to water controls.
Where [4] appears, read: 20 mM in medium, max OD650 nm relative to water controls.
[5] abbreviates: Bordetella pertussis, 168 h, read-out: Relative yield Average, 0.1 mg/L in medium, max OD650 nm relative to water controls.
[6] abbreviates: Bordetella pertussis, 168 h, read-out: Relative yield Average, 1 mg/L in medium, max OD650 nm relative to water controls.
[7] abbreviates: Bordetella pertussis, read-out: Relative growth rate Average, 0.1 mg/L in medium, first generation, relative to water controls.
[8] abbreviates: Bordetella pertussis, read-out: Relative growth rate Average, 1 mg/L in medium, first generation, relative to water controls.
The mark [9] stands for this setting: Bordetella pertussis, 168 h, read-out: Relative yield Average, 2 mM in medium, max OD650 nm relative to water controls.
Setting [10] is: Bordetella pertussis, 168 h, read-out: Relative yield Average, 20 mM in medium, max OD650 nm relative to water controls.
[11] abbreviates: Bordetella pertussis, read-out: Relative growth rate Average, 2 mM in medium, first generation, relative to water controls.
The mark [12] stands for this setting: Bordetella pertussis, read-out: Relative growth rate Average, 20 mM in medium, first generation, relative to water controls.
Setting [13] is: Bordetella pertussis, 168 h, read-out: Relative yield Average, 1.33 mM in medium, max OD650 nm relative to water controls.
[14] abbreviates: Bordetella pertussis, read-out: Relative growth rate Average, 1.33 mM in medium, first generation, relative to water controls.

Read-outs that look alike come from different tables or passages of the source.

With `CC(O)CC(=O)[O-].[Na+]` (racemic) [Sodium DL-beta-hydroxybutyrate], the “Relative growth rate Average” value under setting [1] is recorded as 100.28% and the “Relative growth rate Average” value under setting [3] is listed as 94.37%. Also, the “Relative yield Average” value is listed as 96.73% under setting [2] and 145.46% under setting [4].

For `Nc1ncnc2nc[nH]c12` [Adenine], the activity at 0.1 µg/mL under setting [5] lay in the range of 95 to 105% and the activity at 0.1 µg/mL under setting [7] lay in the range of 95 to 105%. The activity at 1 µg/mL under setting [6] fell in the range of 95 to 105% and the activity at 1 µg/mL under setting [8] was in the range of 95 to 105%.

Take `O=C(O)CCCC[C@@H]1SC[C@@H]2NC(=O)N[C@@H]21` [Biotin]: where the note is “Bordetella pertussis, read-out: Relative growth rate Average, 0.02 mg/L in medium, first generation, relative to water controls”, the activity at 0.02 µg/mL is above 105%. The activity at 0.2 µg/mL (Bordetella pertussis, read-out: Relative growth rate Average, 0.2 mg/L in medium, first generation, relative to water controls) lay in the range of 95 to 105%.

Take `O.O.[Ca+2].[Cl-].[Cl-]` [CaCl2•2H2O]: the “Relative growth rate Average” value (0.3 mM in medium, first generation, relative to water controls) was determined as 107.49% and the “Relative growth rate Average” value (3 mM in medium, first generation, relative to water controls) is recorded as 92.03%. Also, the “Relative yield Average” value runs as follows: (0.3 mM in medium, max OD650 nm relative to water controls) 104.03%; (3 mM in medium, max OD650 nm relative to water controls) 107.34%.

Consider `C[N+](C)(C)CCO.[Cl-]` [Choline chloride], for which the activity at 0.6 µg/mL lay in the range of 95 to 105% (Bordetella pertussis, 168 h, read-out: Relative yield Average, 0.6 mg/L in medium, max OD650 nm relative to water controls) and 95 to 105% (Bordetella pertussis, read-out: Relative growth rate Average, 0.6 mg/L in medium, first generation, relative to water controls). Besides, the activity at 6 µg/mL (Bordetella pertussis, 168 h, read-out: Relative yield Average, 6 mg/L in medium, max OD650 nm relative to water controls) fell in the range of 95 to 105% and the activity at 6 µg/mL (Bordetella pertussis, read-out: Relative growth rate Average, 6 mg/L in medium, first generation, relative to water controls) was in the range of 95 to 105%.

Consider `O=C(O)CC(O)(CC(=O)O)C(=O)O` [Citric acid monohydrate], for which, under setting [9], the activity at 2000 µM is below 95%.

For the compound `O.O.O.O.O.O.[Cl-].[Cl-].[Co+2]` [CoCl2•6H2O], the “Relative growth rate Average” value stood at 93.44% (0.42 mg/L in medium, first generation, relative to water controls) and 46.12% (4.2 mg/L in medium, first generation, relative to water controls). In addition, the “Relative yield Average” value is, setting by setting: (0.42 mg/L in medium, max OD650 nm relative to water controls) 103.04%; (4.2 mg/L in medium, max OD650 nm relative to water controls) 149.59%.

Regarding `O=C([O-])/C=C/C(=O)[O-].[Na+].[Na+]` [Disodium Fumarate], the “Relative growth rate Average” value under setting [1] stood at 97.72% and the “Relative growth rate Average” value under setting [3] was determined as 86.72%. In addition, the “Relative yield Average” value is, setting by setting: under setting [2], 107.14%; under setting [4], 171.26%.

Take `Nc1nc(=O)c2nc(CNc3ccc(C(=O)N[C@@H](CCC(=O)O)C(=O)O)cc3)cnc2[nH]1` [Folate]: the activity at 0.12 µg/mL by setting is: (Bordetella pertussis, 168 h, read-out: Relative yield Average, 0.12 mg/L in medium, max OD650 nm relative to water controls) above 105%; (Bordetella pertussis, read-out: Relative growth rate Average, 0.12 mg/L in medium, first generation, relative to water controls) 95 to 105%. In addition, the activity at 1.2 µg/mL lay within 95 to 105% (Bordetella pertussis, 168 h, read-out: Relative yield Average, 1.2 mg/L in medium, max OD650 nm relative to water controls) and 95 to 105% (Bordetella pertussis, read-out: Relative growth rate Average, 1.2 mg/L in medium, first generation, relative to water controls).

In the case of `OCC(O)CO` [Glycerol], the activity at 2000 µM reads like this: under setting [9], 95 to 105%; under setting [11], 95 to 105%. Moreover, the activity at 20000 µM is, setting by setting: under setting [10], above 105%; under setting [12], below 95%.

Turning to `NCC(=O)O` [Glycine], the activity at 2000 µM under setting [9] fell in the range of 95 to 105% and the activity at 2000 µM under setting [11] was above 105%. For the same compound, the activity at 20000 µM under setting [12] is above 105%.

Regarding `Nc1nc2nc[nH]c2c(=O)[nH]1` [Guanine], the activity at 0.1 µg/mL under setting [5] fell in the range of 95 to 105% and the activity at 0.1 µg/mL under setting [7] was 95 to 105%. Further, the activity at 1 µg/mL was 95 to 105% under setting [6] and 95 to 105% under setting [8].

Take `O[C@H]1[C@H](O)[C@@H](O)[C@H](O)[C@@H](O)[C@H]1O` [Inositol]: the activity at 2.8 µg/mL fell in the range of 95 to 105% (Bordetella pertussis, 168 h, read-out: Relative yield Average, 2.8 mg/L in medium, max OD650 nm relative to water controls) and 95 to 105% (Bordetella pertussis, read-out: Relative growth rate Average, 2.8 mg/L in medium, first generation, relative to water controls). Moreover, the activity at 28 µg/mL (Bordetella pertussis, 168 h, read-out: Relative yield Average, 28 mg/L in medium, max OD650 nm relative to water controls) fell in the range of 95 to 105% and the activity at 28 µg/mL (Bordetella pertussis, read-out: Relative growth rate Average, 28 mg/L in medium, first generation, relative to water controls) lay in the range of 95 to 105%.

With `C[C@H](N)C(=O)O` [L-Alanine], the activity at 2000 µM under setting [9] was in the range of 95 to 105% and the activity at 2000 µM under setting [11] was above 105%.

In the case of `N=C(N)NCCC[C@H](N)C(=O)O` [L-Arginine], the “Effect on growth rate in comparison to a minimally identified medium” value is recorded as “positive effect”. In addition, the activity at 2000 µM under setting [9] was above 105%. In addition, under setting [11], the activity at 2000 µM was above 105%. Moreover, the activity at 20000 µM under setting [12] is above 105%.

Take `NC(=O)C[C@H](N)C(=O)O` [L-Asparagine]: the activity at 1330 µM under setting [13] was in the range of 95 to 105% and the activity at 1330 µM under setting [14] was in the range of 95 to 105%. The activity at 13300 µM was below 95% (Bordetella pertussis, 168 h, read-out: Relative yield Average, 13.3 mM in medium, max OD650 nm relative to water controls) and 95 to 105% (Bordetella pertussis, read-out: Relative growth rate Average, 13.3 mM in medium, first generation, relative to water controls).

With `N[C@@H](CC(=O)O)C(=O)O` [L-Aspartate], the “Relative growth rate Average” value runs as follows: (0.225 mM in medium, first generation, relative to water controls) 96.87%; (2.25 mM in medium, first generation, relative to water controls) 72.32%. In addition, the “Relative yield Average” value was 106.30% (0.225 mM in medium, max OD650 nm relative to water controls) and 99.74% (2.25 mM in medium, max OD650 nm relative to water controls).

As to `N[C@@H](CS)C(=O)O` [L-Cysteine], the activity at 250 µM (Bordetella pertussis, 168 h, read-out: Relative yield Average, 0.25 mM in medium, max OD650 nm relative to water controls) came to 158% and the activity at 250 µM (Bordetella pertussis, read-out: Relative growth rate Average, 0.25 mM in medium, first generation, relative to water controls) amounted to 155%. In addition, the activity at 2000 µM reads like this: under setting [9], above 105%; under setting [11], above 105%. Also, the activity at 2500 µM is 212% (Bordetella pertussis, 168 h, read-out: Relative yield Average, 2.5 mM in medium, max OD650 nm relative to water controls) and 146% (Bordetella pertussis, read-out: Relative growth rate Average, 2.5 mM in medium, first generation, relative to water controls). Moreover, the activity at 20000 µM is, setting by setting: under setting [10], above 105%; under setting [12], above 105%.

Consider `NC(=O)CC[C@H](N)C(=O)O` [L-Glutamine], for which the activity at 2000 µM reads like this: under setting [9], 95 to 105%; under setting [11], 95 to 105%. Moreover, the activity at 20000 µM under setting [10] was above 105% and the activity at 20000 µM under setting [12] is below 95%.

As for `N[C@@H](Cc1c[nH]cn1)C(=O)O` [L-Histidine], the activity at 2000 µM under setting [9] fell in the range of 95 to 105% and the activity at 2000 µM under setting [11] was above 105%. In addition, the activity at 20000 µM runs as follows: under setting [10], below 95%; under setting [12], above 105%.

With `CC[C@H](C)[C@H](N)C(=O)O` [L-Isoleucine], the “Effect on growth rate in comparison to a minimally identified medium” value is recorded as “negative effect”. For the same compound, under setting [9], the activity at 2000 µM is below 95%. Moreover, the activity at 20000 µM under setting [10] is below 95%. In addition, the activity at 2000 µM under setting [11] is below 95%.

For `CC(C)C[C@H](N)C(=O)O` [L-Leucine], the activity at 1330 µM lay in the range of 95 to 105% under setting [13] and 95 to 105% under setting [14].

Regarding `Cl.NCCCC[C@H](N)C(=O)O` [L-Lysine HCl], the activity at 2000 µM is above 105% under setting [9] and below 95% under setting [11].

With `CSCC[C@H](N)C(=O)O` [L-Methionine], the activity at 20000 µM runs as follows: under setting [10], above 105%; under setting [12], above 105%. The activity at 2000 µM under setting [11] was above 105%.

In the case of `N[C@@H](Cc1ccccc1)C(=O)O` [L-Phenylalanine], the activity at 1330 µM was below 95% under setting [13] and below 95% under setting [14].

As to `O=C(O)[C@@H]1CCCN1` [L-Proline], the activity at 2000 µM under setting [9] is 95 to 105%. In addition, the activity at 20000 µM under setting [10] is above 105%.

Regarding `N[C@@H](CO)C(=O)O` [L-Serine], the activity at 2000 µM runs as follows: under setting [9], below 95%; under setting [11], 95 to 105%. Besides, the activity at 20000 µM under setting [10] is below 95%.

With `C[C@@H](O)[C@H](N)C(=O)O` [L-Threonine], the activity at 2000 µM reads like this: under setting [9], 95 to 105%; under setting [11], below 95%. Under setting [10], the activity at 20000 µM is below 95%.
